Data from patent publication US20250340591A1, “COMPOSITION FOR PREVENTING OR TREATING INFLAMMATORY BOWEL DISEASE CONTAINING NOVEL COMPOUND” (ANYGEN CO., LTD., priority 2021, published 2025).

Columns and labels:
[1] = system: HT-29 cells; assay: calcium ion concentration in HT-29 cells (Fluo-8); format: cell-based; settings: 10 uM, vs untreated group (vehicle), FIG. 76
Protocol: It is known from studies using GPR39 deficient mice that calcium signaling is involved in the growth of intestinal tissue cells by GPR39 (Phil. Trans. R. Soc. B. 2016, 371:20150420). Therefore, it was confirmed whether calcium signaling is involved in the cell growth promoted by HKFY-34.
Specifically, HT-29 cells were cultured in a 96-well black culture plate and then treated with HKFY-34, and the calcium ion concentration in the cells was measured using a Fluo-8 Direct™ calcium assay kit (Thermo Fisher Scientific). As a result, the calcium ion concentration in HT-29 cells was increased by HKFY-34 compared to the untreated group (vehicle) (FIG. 76).

[2] = system: AMPK; assay: phosphorylation of AMPK in HT-29 cells, Western blot; format: cell-based
Source text: It is known that tight junctions are mediated by a signaling mechanism due to phosphorylation of AMPK protein. Therefore, in order to confirm whether AMPK is involved in the increase in tight junctions by HKFY-34, the expression of p-AMPK in the cells was confirmed using HT-29 cells (FIGS. 79 and 80).
In addition, when treated with HKFY-34 after pretreatment with an AMPK inhibitor (STO-609), it was confirmed that the expression level of p-AMPK, which was increased due to HKFY-34 treatment, was decreased (FIG. 80).

[3] = system: HT-29 cells; assay: LPS-induced inflammation cell model of inflammatory bowel disease (HT-29), qPCR and ELISA; format: cell-based; settings: HT-29, 1 μg/mL LPS, vs LPS alone
Protocol: In order to confirm the effect of HKFY-34 on anti-inflammatory action, which is one of the gastrointestinal tract protective function (barrier function) by GPR39, the anti-inflammatory activity of HKFY-34 was evaluated in a cell model of inflammatory bowel disease (IBD).
Specifically, the HT-29 cells were treated with 1 μg/mL LPS to induce inflammation and prepare an inflammatory bowel disease model, and were treated with HKFY-34 at different concentrations. Thereafter, the expression levels of mRNA (FIG. 81) and protein (FIG. 82) of inflammation factors for ulcerative colitis were measured through qPCR and ELISA.

[4] = system: C57BL6/J mice with ulcerative colitis induced by DSS; assay: DSS-induced ulcerative colitis animal model; format: in vivo
Protocol: Specifically, an animal model of ulcerative colitis among inflammatory bowel diseases was prepared by feeding C57BL6/J mice (Central Lab. Animal Inc.) with water containing 3% DSS (dextran sodium sulfate).
The untreated (vehicle) mice were set as a control group, the mice fed with only DSS (vehicle+3% DSS) were set as a negative control group, and the mice administered intraperitoneally with SASP (sulfasalazine) at 50 mg/kg after treatment with DSS (SASP 50 mg/kg+3% DSS) were set as a positive control group. As a test group, the mice were intraperitoneally administered with HKFY-34 at 0.1, 1, and 10 mg/kg, respectively. HKFY-34 was administered once a day for 5 days, and during the administration period, the stool condition and body weight loss were measured in the subjects. […]

[5] = system: ulcerative colitis-induced wild type mice; assay: DSS-induced ulcerative colitis in wild type littermate mice; format: in vivo
Protocol: In order to confirm the effect of HKFY-34 in an inflammatory bowel disease model using GPR39 as a target substance, a disease model of ulcerative colitis was prepared using GPR39 deficient mice (GPR39 knock out (KO), Gpr39^−/−). At this time, wild type mice born from a litter were set as a control group for each treated group of GPR39 deficient mice.
Specifically, an animal model of ulcerative colitis was prepared by feeding GPR39 deficient mice (Lexicon pharmaceuticals) and wild type mice with water containing 3% DSS in the same manner as in Experimental Example 7. GPR39 KO mice fed with only DSS (vehicle+3% DSS) were set as a negative control group, and GPR39 KO mice administered with HKFY-34 (10 mg/kg) (HKFY-34 10 mg/kg+3% DSS) were set as a test group. Intraperitoneal administration was performed once a day for 5 days.

[6] = biological target: T1, GPR39 (Homo sapiens, UniProt O43194); assay: luciferase assay system (SRE luciferase reporter gene, CV-1 cells expressing GPR39); format: cell-based; set-up: expressed in transfected cells; host or cells: CV-1 fibroblast cell line (Korea Cell Line Bank), adenoviral transduction at 50 MOI
T1 sequence (O43194 1-453): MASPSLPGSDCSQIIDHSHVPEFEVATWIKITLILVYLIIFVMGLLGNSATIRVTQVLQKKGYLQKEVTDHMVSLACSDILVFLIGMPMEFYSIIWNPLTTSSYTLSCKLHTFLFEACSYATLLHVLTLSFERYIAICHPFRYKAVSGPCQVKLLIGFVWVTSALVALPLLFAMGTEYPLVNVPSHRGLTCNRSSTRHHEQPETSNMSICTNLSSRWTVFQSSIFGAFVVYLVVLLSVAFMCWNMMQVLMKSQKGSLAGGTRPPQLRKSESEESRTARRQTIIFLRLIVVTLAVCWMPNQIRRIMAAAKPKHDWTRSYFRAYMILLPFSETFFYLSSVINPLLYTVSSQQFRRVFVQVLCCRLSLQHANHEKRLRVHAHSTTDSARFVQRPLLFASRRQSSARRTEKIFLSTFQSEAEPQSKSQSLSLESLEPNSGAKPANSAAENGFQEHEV

[7] = 0.1, 1 and 10 mg/kg intraperitoneal for 5 days, ELISA, vs negative control, FIG. 88
[8] = 0.1, 1 and 10 mg/kg intraperitoneal for 5 days, qPCR, FIG. 90
[9] = 0.1, 1 and 10 mg/kg intraperitoneal for 5 days, qPCR, vs negative control, FIG. 87

CCCCCCCC(=O)NCCCC[C@H](NC(=O)[C@@H](N)Cc1cn(C(c2ccccc2)c2ccccc2)cn1)C(=O)N[C@H](Cc1ccc(C)cc1)C(=O)N[C@@H](Cc1ccc(O)cc1)C(=O)O [HKFY-34, ((R)-2-((S)-2-((S)-2-amino-3-(1-benzhydryl-1H-imidazol-4-yl)propanamido)-6-octanamidohexanamido)-3-(p-tolyl)propanoyl)-L-tyrosine]
calcium ion concentration in HT-29 cells [1]: increased
expression of p-AMPK protein ([2]; HT-29, different concentrations, vs vehicle, FIG. 79): increased by HKFY-34 in a dose-dependent manner
expression level of p-AMPK after pretreatment with AMPK inhibitor ([2]; HT-29, pretreatment with STO-609 1 μM, vs HKFY-34 treatment, FIG. 80): decreased
secretion level of IL-1β ([3]; ELISA, FIG. 82): significantly decreased by HKFY-34 treatment in a dose-dependent manner
secretion level of IL-6 ([3]; ELISA, FIG. 82): significantly decreased by HKFY-34 treatment in a dose-dependent manner
secretion level of IL-8 ([3]; ELISA, FIG. 82): significantly decreased by HKFY-34 treatment in a dose-dependent manner
secretion level of TNF-α ([3]; ELISA, FIG. 82): significantly decreased by HKFY-34 treatment in a dose-dependent manner
mRNA expression level of IL-1β ([3]; qPCR, FIG. 81): significantly decreased by HKFY-34 treatment in a dose-dependent manner
mRNA expression level of IL-6 ([3]; qPCR, FIG. 81): significantly decreased by HKFY-34 treatment in a dose-dependent manner
mRNA expression level of IL-8 ([3]; qPCR, FIG. 81): significantly decreased by HKFY-34 treatment in a dose-dependent manner
mRNA expression level of TNF-α ([3]; qPCR, FIG. 81): significantly decreased by HKFY-34 treatment in a dose-dependent manner
concentration of IL-1β in the blood [4, 7]: significantly decreased
concentration of TNF-α in the blood [4, 7]: significantly decreased
mRNA expression level of ZO-1 in colon tissue [4, 8]: significantly increased by HKFY-34 in a dose-dependent manner
mRNA expression level of occludin in colon tissue [4, 8]: significantly increased by HKFY-34 in a dose-dependent manner
mRNA expression level of IL-1β in colon tissue [4, 9]: significantly decreased
mRNA expression level of IL-6 in colon tissue [4, 9]: significantly decreased
mRNA expression level of IL-8 in colon tissue [4, 9]: significantly decreased
mRNA expression level of TNF-α in colon tissue [4, 9]: significantly decreased
length contraction of the colon ([4]; 0.1, 1 and 10 mg/kg intraperitoneal for 5 days, vs negative control (DSS alone), FIG. 84): reduced by HKFY-34 in a dose-dependent manner
degree of damage caused by inflammation of the colon tissue (H&E staining) ([4]; 0.1, 1 and 10 mg/kg intraperitoneal for 5 days, vs negative control, FIG. 89): alleviated
body weight loss ([4]; 0.1, 1 and 10 mg/kg intraperitoneal once a day for 5 days, 3% DSS, FIG. 83): significantly inhibited by HKFY-34 in a dose-dependent manner
stool consistency (diarrhea) score ([4]; 0.1, 1 and 10 mg/kg intraperitoneal, score 0 to 3, FIG. 85): alleviated in a dose-dependent manner
blood in stool (fecal bleeding) score ([4]; 0.1, 1 and 10 mg/kg intraperitoneal, score 0 to 3, FIG. 86): alleviated in a dose-dependent manner
decrease in colon length ([5]; 10 mg/kg intraperitoneal for 5 days, FIG. 92): inhibited
damage due to inflammation of colon tissue (H&E staining) ([5]; 10 mg/kg intraperitoneal for 5 days, FIG. 95): reduced
body weight loss ([5]; 10 mg/kg intraperitoneal once a day for 5 days, 3% DSS, FIG. 91): inhibited
ECmax (−fold induction over basal) [6]: 22.39 ± 4.59 fold induction over basal
Reporter gene assay ECmax (−fold induction over basal) [6]: 22.39 ± 4.59 fold induction over basal
activity level for GPR39 (in words) ([6]; comment on Table 3): higher activity level than other HKFY derivatives
activity and ECmax value for GPR39 (in words) ([6]; comment on Table 3, derivatives composed of d-Phe(methyl)): most excellent activity and high ECmax value
